In publication PMC10108266, “Pharmacokinetic characteristics of golidocitinib, a highly selective JAK1 inhibitor, in healthy adult participants” (Frontiers in Immunology, 2023):
Like-named read-outs stand apart in the source and are kept apart here.

Assays:
[1] = JACKPOT2 single-ascending-dose plasma PK, healthy participants in USA; format: in vivo, human; settings: for Cmax / Tmax / AUC(0-inf) / Vd/F / half-life: human, plasma; for Cmax / AUC(0-inf): geometric mean (CV%)
Text: This was a Phase I, randomized, double-blinded, placebo-controlled study to assess the safety, tolerability, and PK of golidocitinib in healthy participants in the USA. This study included two parts: part A (single-ascending-dose [SAD] and food effect [FE] cohorts) and part B (multiple-ascending-dose [MAD] cohorts). Please refer to Figure 1 for the study flowchart.
(§1) A total of 42 and 24 healthy participants were enrolled in part A and part B, respectively. In part A, a total of 30 participants were randomized into 5 SAD cohorts (n = 6 per cohort) and received a single dose of golidocitinib at different dose levels or a matching placebo in a 4:2 ratio. In the food effect cohort, a total of 12 participants were enrolled and received the study drug under fasted or fed conditions, with a sequential design. The 50 mg dose was selected based on available safety data after the completion of the SAD cohorts, and also on the outcomes from PK/PD modeling for potential efficacious dose for autoimmune disease. On Day 1, participants took a single dose of golidocitinib under fast condition. After a 14-day wash-out period, on Day 15, participants received another single dose of golidocitinib immediately after a standard high-fat meal. Food recipes and contents are consistent with that described in FDA Guidance for Food-Effect Bioavailability studies ([10]). For the fed condition, keeping fasted for at least 10 hours, participants started ingestion of high-fat meal 30 minutes prior to administration of golidocitinib. They had to finish the meal within 30 minutes or less, and no food was allowed for at least 4 hours post-dose. In part B, a total of 24 participants were randomized into 3 MAD cohorts, with 8 in each cohort (active:placebo = 6:2). In these cohorts, participants received golidocitinib at different dose levels or placebo once daily dosing for 14 days. Dose escalation was based on available PK and safety data in the previous cohorts.
In the SAD cohorts, serial blood samples were obtained on Day 1 at pre-dose, and at 0.5, 1, 1.5, 2, 3, 4, 6, 10, 14, 24 (Day 2), 48 (Day 3), 72 (Day 4), 120 (Day 6), 168 (Day 8) and 216 (Day 10) hours post-dose for plasma PK analysis. A similar sampling schedule was undertaken for the MAD cohorts on Day 1 and Day 14, with additional trough samples obtained on Days 5, Day 8, and Day 11. In the MAD cohorts, urine samples were collected on Day 14 during the collection intervals of 0-4, 4-10, and 10-24 hours following the last dose for urine PK analysis. Plasma and urine samples were analyzed by Frontage Laboratories Inc. (New Jersey, USA) using a validated LC/MS/MS bioanalytical method to determine golidocitinib concentrations. Cross validation in plasma was successful between Frontage Laboratories Inc. (New Jersey, USA) and Frontage Laboratories Inc. (Shanghai) using clinical samples and spiked quality control samples.
Non-compartmental PK analysis for golidocitinib concentrations was performed using Phoenix WinNonlin (Certara USA Inc., version 8.1).
Dose proportionality was concluded if the 90% confidence interval for the ratio of dose-normalized, geometric mean values (Rdnm) was contained completely within the range of 0.8 - 1.25 ([11], [12]).

[2] = JACKPOT2 food effect cohort (50 mg, fasted vs high-fat meal); format: in vivo, human; settings: for AUC0-inf, Geometric Mean Ratio (90% CI) (Test vs Reference) / AUC0-t, Geometric Mean Ratio (90% CI) (Test vs Reference) / Cmax, Geometric Mean Ratio (90% CI) (Test vs Reference) / AUC(0-inf) / AUC(0-t) / Cmax: 50 mg; for AUC0-inf, Geometric Mean Ratio (90% CI) (Test vs Reference) / AUC0-t, Geometric Mean Ratio (90% CI) (Test vs Reference) / Cmax, Geometric Mean Ratio (90% CI) (Test vs Reference): fed versus fasted, percent ratio of geometric least square means; for AUC(0-inf): read-out: AUC0-inf, Geometric mean (%CV); for AUC(0-t): read-out: AUC0-t, Geometric mean (%CV); for Cmax: read-out: Cmax, Geometric mean (%CV)
Protocol: as §1
For food effect assessment, log-transformed PK parameters (AUC0-t, AUC0-inf, and Cmax) of golidocitinib were analyzed using a mixed-effect model including terms for study treatment (fasted and fed) as fixed effects, and participants nested within treatment as a random effect. The CIs on the ratios of untransformed PK parameters were derived through a reverse transformation of the 90% CIs for the differences of the means in the log scale from the mixed-effect model. Least-squares geometric means, a ratio of the geometric means and 90% CIs on the ratio of fed to fasted were presented.

[3] = test system: CYP3A4/5 and flavin-containing monooxygenase enzyme (FMO); assay: Enzymatic systems implicated in metabolism; format: in vitro ADME
[4] = target: P-glycoprotein (P-gp) (Homo sapiens, UniProt P08183); assay: In vitro P-gp substrate experiments; format: in vitro ADME; settings: active transport saturable at high concentrations
P-glycoprotein (P-gp), sequence (P08183 whole entry): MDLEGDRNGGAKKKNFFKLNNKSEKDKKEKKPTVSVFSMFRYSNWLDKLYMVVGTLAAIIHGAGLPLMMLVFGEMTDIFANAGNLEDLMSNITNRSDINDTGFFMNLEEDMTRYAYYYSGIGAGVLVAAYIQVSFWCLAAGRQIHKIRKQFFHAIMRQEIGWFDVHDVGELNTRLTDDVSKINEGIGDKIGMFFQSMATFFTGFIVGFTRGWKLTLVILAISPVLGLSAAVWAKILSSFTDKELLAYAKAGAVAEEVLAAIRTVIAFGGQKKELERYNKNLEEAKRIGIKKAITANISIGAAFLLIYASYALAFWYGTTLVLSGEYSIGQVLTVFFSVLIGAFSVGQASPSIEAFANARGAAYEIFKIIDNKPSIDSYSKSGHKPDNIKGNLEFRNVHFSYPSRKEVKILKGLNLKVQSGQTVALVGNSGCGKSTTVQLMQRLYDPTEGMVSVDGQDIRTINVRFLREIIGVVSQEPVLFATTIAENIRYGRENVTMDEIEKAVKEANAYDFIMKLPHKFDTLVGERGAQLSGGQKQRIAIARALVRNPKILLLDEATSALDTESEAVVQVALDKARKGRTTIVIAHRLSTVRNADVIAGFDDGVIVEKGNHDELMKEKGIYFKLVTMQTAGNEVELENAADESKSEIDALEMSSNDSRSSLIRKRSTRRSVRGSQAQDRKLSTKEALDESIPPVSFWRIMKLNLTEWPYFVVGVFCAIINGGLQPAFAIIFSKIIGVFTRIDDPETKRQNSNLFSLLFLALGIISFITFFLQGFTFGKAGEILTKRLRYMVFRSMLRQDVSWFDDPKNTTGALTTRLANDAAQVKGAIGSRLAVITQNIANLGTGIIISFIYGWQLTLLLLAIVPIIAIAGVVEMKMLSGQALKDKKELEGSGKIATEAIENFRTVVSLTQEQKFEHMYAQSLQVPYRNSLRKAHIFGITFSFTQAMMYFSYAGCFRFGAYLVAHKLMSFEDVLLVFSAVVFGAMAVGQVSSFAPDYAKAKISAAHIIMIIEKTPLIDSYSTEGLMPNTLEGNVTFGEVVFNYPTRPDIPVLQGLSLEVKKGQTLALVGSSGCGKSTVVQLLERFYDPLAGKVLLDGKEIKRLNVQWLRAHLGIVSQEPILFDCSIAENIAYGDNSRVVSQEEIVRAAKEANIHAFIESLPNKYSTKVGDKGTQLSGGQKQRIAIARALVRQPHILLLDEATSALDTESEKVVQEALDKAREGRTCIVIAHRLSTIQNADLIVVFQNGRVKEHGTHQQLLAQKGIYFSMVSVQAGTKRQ

[5] = Solubility in vitro; format: physicochemical
[6] = Overall safety and tolerability, JACKPOT2 and JACKPOT3; format: in vivo, human
Text: Safety assessments included monitoring of adverse events/serious adverse events, clinical safety laboratory tests (clinical chemistry, hematology, coagulation, and urinalysis tests), 12-lead ECG, vital signs (blood pressure, pulse rate, and respiratory rate), and pulmonary function. All adverse events were coded using the Medical Dictionary for Regulatory Activities (MedDRA), version 22.0. The CTCAE 5.0 was used to define the intensity of AEs.
The safety monitoring for both JACKPOT2 and JACKPOT3 was similar, included monitoring of adverse events/serious adverse events, clinical safety laboratory tests (clinical chemistry, hematology, coagulation, and urinalysis tests), 12-lead ECG, vital signs (blood pressure, pulse rate, and respiratory rate), and pulmonary function.

[7] = human, plasma, oral, 50 mg single dose, Fasted (Reference), N = 12
[8] = human, plasma, oral, 50 mg single dose, High-fat meal (Test), N = 11

In the case of `COc1nn(C)cc1Nc1nccc(-c2c[nH]c3c(NC(=O)[C@@H](C)N4CCN(C)CC4)cccc23)n1` [golidocitinib, (2R)-N-[3-[2-[(3-Methoxy-1-methyl-pyrazol-4-yl)amino]pyrimidin-4-yl]-1H-indol-7-yl]-2-(4-methylpiperazin-1-yl)propenamide], the Cmax ([1]; oral, single dose 5 mg) was 5.14 ng/mL, the Tmax ([1]; oral, single dose 5 mg, median (min, max), read-out: tmax) was 8 h and the AUC(0-inf) ([1]; oral, single dose 20 mg) was 923 ng·h/mL. The Cmax ([1]; oral, single dose 20 mg) was 18.6 ng/mL, the Vd/F ([1]; oral, single dose 20 mg, mean (SD), read-out: Vz/F) was 1540 L and the half-life ([1]; oral, single dose 20 mg, median (min, max), read-out: t1/2 (converted)) was 51.3 h. The Tmax ([1]; oral, single dose 20 mg, median (min, max), read-out: tmax) was 8 h, the AUC(0-inf) ([1]; oral, single dose 50 mg) was 2340 ng·h/mL and the Cmax ([1]; oral, single dose 50 mg) was 48.5 ng/mL. For the same molecule, the Vd/F ([1]; oral, single dose 50 mg, mean (SD), read-out: Vz/F) was 1420 L, the half-life ([1]; oral, single dose 50 mg, median (min, max), read-out: t1/2 (converted)) was 42.8 h and the Tmax ([1]; oral, single dose 50 mg, median (min, max), read-out: tmax) was 6 h. For the same molecule, the AUC(0-inf) ([1]; oral, single dose 100 mg) was 5260 ng·h/mL, the Cmax ([1]; oral, single dose 100 mg) was 133 ng/mL and the Vd/F ([1]; oral, single dose 100 mg, mean (SD), read-out: Vz/F) was 1380 L. The half-life ([1]; oral, single dose 100 mg, median (min, max), read-out: t1/2 (converted)) was 50.4 h, the Tmax ([1]; oral, single dose 100 mg, median (min, max), read-out: tmax) was 2.5 h and the AUC(0-inf) ([1]; oral, single dose 150 mg) was 7260 ng·h/mL. For the same molecule, the Cmax ([1]; oral, single dose 150 mg) was 232 ng/mL, the Vd/F ([1]; oral, single dose 150 mg, mean (SD), read-out: Vz/F) was 1400 L and the half-life ([1]; oral, single dose 150 mg, median (min, max), read-out: t1/2 (converted)) was 46.6 h. It also gave a Tmax ([1]; oral, single dose 150 mg, median (min, max), read-out: tmax) of 3 h, a Vd/F ([1]; single oral administration, US participants, read-out: mean Vz/F) of 1380 to 1540 L and a half-life ([1]; single oral administration, across the dose range, US participants, read-out: median terminal half-life (t1/2)) of 42.8 to 51.3 h. For the same molecule, the Tmax ([1]; single oral administration, across the dose range, US participants, read-out: median tmax) was 2.5 to 8 h, the CL/F ([1]; single dose 20 mg, mean (SD)) was 21.7 (1.18) L/hr and the CL/F ([1]; single dose 50 mg, mean (SD)) was 22.1 (6.20) L/hr. For the same molecule, the CL/F ([1]; single dose 100 mg, mean (SD)) was 19.2 (3.09) L/hr, the CL/F ([1]; single dose 150 mg, mean (SD)) was 21.9 (8.58) L/hr and the “tmax, Median (range)” value ([2]; 50 mg single dose, High-fat meal (Test), N = 11) was 6.00 (4.00, 14.0) hour. The “AUC0-inf, Geometric Mean Ratio (90% CI) (Test vs Reference)” value [2] was 116.5 (111.2, 122.0) %, the “AUC0-t, Geometric Mean Ratio (90% CI) (Test vs Reference)” value [2] was 115.0 (109.3, 121.0) % and the “Cmax, Geometric Mean Ratio (90% CI) (Test vs Reference)” value [2] was 108.9 (97.81, 121.2) %. For the same molecule, the “AUC0-inf, Geometric Mean Ratio (90% CI) (Test vs Reference)” value ([2]; listed as Golidocitinib) was 116.5 (111.2-122.0) %, the “AUC0-t, Geometric Mean Ratio (90% CI) (Test vs Reference)” value ([2]; listed as Golidocitinib) was 115.0 (109.3-121.0) % and the “Cmax, Geometric Mean Ratio (90% CI) (Test vs Reference)” value ([2]; listed as Golidocitinib) was 108.9 (97.81-121.2) %. It also gave an AUC(0-inf) [2, 7] of 2960 ng·h/mL, an AUC(0-t) [2, 7] of 2770 ng·h/mL and a Cmax [2, 7] of 68.8 ng/mL. The AUC(0-inf) [2, 8] was 3400 ng·h/mL, the AUC(0-t) [2, 8] was 3230 ng·h/mL and the Cmax [2, 8] was 73.7 ng/mL. The Tmax ([2]; human, plasma, oral, 50 mg single dose, Fasted (Reference), N = 12, read-out: tmax, Median (range)) was 6 h, the “enzymatic systems implicated in the metabolism” value [3] was “CYP3A4/5 and flavin-containing monooxygenase enzyme (FMO)” and the P-gp substrate status [4] was “P-glycoprotein (P-gp) substrate”. For the same molecule, the solubility [5] was “high solubility”, the tolerability ([6]; healthy participants, 5 mg to 150 mg single dose, 25 mg to 100 mg multiple dose) was “well-tolerated” and the serious adverse events ([6]; in vivo) was “No serious adverse events were reported”. The “CTCAE grade 3 or higher drug-related TEAE” value ([6]; investigators' assessment) was “no CTCAE grade 3 or higher drug-related TEAE was reported”.
